US6005116A, “Isoxazole compounds useful for the prophylaxis or treatment of nervous diseases” (Sankyo Company, Limited, priority 1996, dated 1999)
Where a name gives a salt, the structure may show the parent alone. Read-outs that look alike come from different tables or passages of the source.

Molecular target: T1, Type A-monoamine oxidase (Mus musculus, UniProt Q64133)
T1 sequence (Q64133 1-526): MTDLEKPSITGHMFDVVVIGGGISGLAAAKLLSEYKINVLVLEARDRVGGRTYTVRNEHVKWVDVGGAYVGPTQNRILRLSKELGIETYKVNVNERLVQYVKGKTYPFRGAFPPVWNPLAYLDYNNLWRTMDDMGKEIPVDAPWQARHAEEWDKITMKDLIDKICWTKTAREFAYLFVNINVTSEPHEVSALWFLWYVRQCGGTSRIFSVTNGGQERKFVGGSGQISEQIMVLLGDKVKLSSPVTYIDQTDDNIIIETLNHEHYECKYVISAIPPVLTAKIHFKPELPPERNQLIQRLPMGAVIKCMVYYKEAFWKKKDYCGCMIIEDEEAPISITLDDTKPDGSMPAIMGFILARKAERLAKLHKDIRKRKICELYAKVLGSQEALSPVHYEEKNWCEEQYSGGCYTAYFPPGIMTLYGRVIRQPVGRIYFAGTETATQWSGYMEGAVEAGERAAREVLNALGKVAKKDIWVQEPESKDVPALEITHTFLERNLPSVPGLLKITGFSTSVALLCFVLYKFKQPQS
Test: Type A-monoamine oxidase inhibitory activity
Type: biochemical

[1] = mouse brain crude mitochondria, substrate 14C-5-HT 100 μM, preincubated at 38° C. for 20 minutes, phosphate buffer pH 7.4, read-out: IC50 (concentration of the compound which decreases the 14C radioactivity of the control by 50%)

Description: To 30 μl of a sample of mouse brain crude mitochondria (30 μg protein) were added 210 μl of a phosphate buffer (pH 7.4) and a test compound (dissolved in a mixture of 10% DMSO and water), and the resulting mixture was preincubated at 38° C. for 20 minutes. Subsequently, ^14 C-5-hydroxytriptamine (5-HT, final concentration: 100 μM) was added to the preincubated mixture to effect reaction at 38° C. for 20 minutes.

| Structure (SMILES) | IC50 [1] | IC50 |
| --- | --- | --- |
| NCCOc1noc(-c2ccccc2)c1Cl [Example 2, 3-(2-Aminoethoxy)-4-chloro-5-phenylisoxazole hydrochloride] | < 28 nM | – |
| CC(C)c1c(OCCN)noc1-c1ccccc1 [Example 4, 3-(2-Aminoethoxy)-4-isopropyl-5-phenylisoxazole hydrochloride] | < 28 nM | – |
| NCCOc1noc(-c2cccs2)c1Cl [Example 6, 3-(2-Aminoethoxy)-4-chloro-5-(2-thienyl)isoxazole hydrochloride] | < 28 nM | – |
| NCCOc1cc(-c2cccnc2)on1 [Example 7, 3-(2-Aminoethoxy)-5-(3-pyridyl)isoxazole hydrochloride] | < 28 nM | – |
| NCCOc1noc(-c2cccnc2)c1Cl [Example 8, 3-(2-Aminoethoxy)-4-chloro-5-(3-pyridyl)isoxazole hydrochloride] | < 28 nM | – |
| CC(C)c1c(OCCN)noc1-c1ccc(Cl)cc1Cl [Example 57, 3-(2-Aminoethoxy)-5-(2,4-dichlorophenyl)-4-isopropylisoxazole hydrochloride] | – | < 28 nM |
| CC(C)c1c(OCCN)noc1-c1ccccc1Cl [Example 58, 3-(2-Aminoethoxy)-5-(2-chlorophenyl)-4-isopropylisoxazole hydrochloride] | < 28 nM | – |
| CC(C)c1c(OCCN)noc1-c1cccs1 [Example 67, 3-(2-Aminoethoxy)-4-isopropyl-5-(2-thienyl)isoxazole hydrochloride] | < 28 nM | – |

Second part, led by results:

| IC50 [1] | Structure (SMILES) | IC50 |
| --- | --- | --- |
| < 28 nM | NCCOc1cc(-c2ccccc2)on1 [Example 1, 3-(2-Aminoethoxy)-5-phenylisoxazole hydrochloride] | – |
| < 28 nM | NCCOc1cc(-c2ccc(Cl)cc2)on1 [Example 3, 3-(2-Aminoethoxy)-5-(4-chlorophenyl)isoxazole hydrochloride] | – |
| < 28 nM | NCCOc1cc(-c2cccs2)on1 [Example 5, 3-(2-Aminoethoxy)-5-(2-thienyl)isoxazole hydrochloride] | – |
| < 28 nM | CC(C)c1c(OCCN)noc1-c1ccco1 [Example 54, 3-(2-Aminoethoxy-5-(2-furyl)-4-isopropylisoxazole hydrochloride] | – |
| < 28 nM | CC(C)c1c(OCCN)noc1-c1ccc(Cl)cc1 [Example 59, 3-(2-Aminoethoxy)-5-(4-chlorophenyl)-4-isopropylisoxazole hydrochloride] | – |
| < 28 nM | C=CCc1c(OCCN)noc1-c1ccccc1 [Example 60, 4-Allyl-3-(2-aminoethoxy)-5-phenylisoxazole hydrochloride] | – |
| < 28 nM | CC(C)Cc1c(OCCN)noc1-c1ccccc1 [Example 62, 3-(2-Aminoethoxy)-4-isobutyl-5-phenylisoxazole hydrochloride] | – |
